For experiment [1], the system named is Rattus norvegicus. Nature of the experiment: Compound was evaluated in paw test for the hindlimb retraction at effective dose of 5 (mg/kg). The class given is functional.
In experiment [2] the test system is Rattus norvegicus. Nature of the experiment: Compound was evaluated in paw test for the forelimb retraction at effective dose of 20 (mg/kg). The class given is functional.
Experiment [3] concerns Mus musculus. Nature of the experiment: Percentage of total immobility time after an intraperitoneal dose of 7.5 (mg/kg) in porsolt's test. The experiment is classed as functional.
In experiment [4] the test system is Mus musculus. Nature of the experiment: Percentage of total immobility time after an intraperitoneal dose of 30 (mg/kg) in porsolt's test. The experiment is classed as functional.
For experiment [5], the system named is Mus musculus. Nature of the experiment: Percentage of total immobility time after an intraperitoneal dose of 15 (mg/kg) in porsolt's test.

Take `O=C(CCCN1CCC(O)(c2ccc(Cl)cc2)CC1)c1ccc(F)cc1` [HALOPERIDOL]: the Retraction time in the experiment on Rattus norvegicus [1] turned out to be 30 s; in the experiment on Rattus norvegicus [2], 22.5 s.

On to `CN(C)CCCN1c2ccccc2CCc2ccccc21` [IMIPRAMINE], for which the Immobility stood at 98% in the experiment with Mus musculus [3], 70% in the experiment with Mus musculus [4] and 45% in the experiment on Mus musculus [5].

The record behind these values is ChEMBL document CHEMBL1135647, “New pyridobenzodiazepine derivatives: modifications of the basic side chain differentially modulate binding to dopamine (D(4.2), D(2L)) and serotonin (5-HT(2A)) receptors” (J Med Chem, 2002).
